Assays:
[1] = target: human TLR7 (Homo sapiens (Human), UniProt Q9NYK1); assay: TLR7 inhibition reporter assay (HEK-Blue SEAP); format: cell-based; conditions: HEK-Blue cells overexpressing human TLR7, gardiquimod 7.5 μM stimulation, SEAP reporter
[2] = target: human TLR9 (Homo sapiens (Human), UniProt Q9NR96); assay: TLR9 inhibition reporter assay (HEK-Blue SEAP); conditions: read-out: TLR9 IC50; HEK-Blue cells overexpressing human TLR9, ODN2006 5 nM stimulation, SEAP reporter;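 note: SEAP driven by an IFN-β minimal promoter with NF-κB and AP-1 sites, read after 22 h, compounds dosed 0.05 nM–50 µM, inhibition scaled between agonist plus DMSO and reference-inhibitor wells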
Description: HEK-Blue™-cells (Invivogen) overexpressing human TLR7, TLR8 or TLR9 receptors were used for screening inhibitors of these receptors using an inducible SEAP (secreted embryonic alkaline phosphatase) reporter gene under the control of the IFN-β minimal promoter fused to five NF-κB and AP-1-binding sites. Briefly, cells are seeded into Greiner 384 well plates (15000 cells per well for TLR7, 20,000 for TLR8 and 25,000 for TLR9) and then treated with test compounds in DMSO to yield a final dose response concentration range of 0.05 nM-50 μM. After a 30 minute compound pre-treatment at room temperature, the cells are then stimulated with a TLR7 ligand (gardiquimod at a final concentration of 7.5 μM), TLR8 ligand (R848 at a final concentration of 15.9 μM) or TLR9 ligand (ODN2006 at a final concentration of 5 nM) to activate NF-κB and AP-1 which induce the production of SEAP. After a 22 hour incubation at 37° C., 5% CO2, SEAP levels are determined with the addition of HEK-Blue™ Detection reagent (Invivogen), a cell culture medium that allows for detection of SEAP, according to manufacturer's specifications.

[3] = target: human TLR8 (Homo sapiens (Human), UniProt Q9NR97); assay: TLR8 inhibition reporter assay (HEK-Blue SEAP); conditions: read-out: TLR8 IC50; HEK-Blue cells overexpressing human TLR8, R848 15.9 μM stimulation, SEAP reporter;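 note: SEAP driven by IFN-β minimal promoter carrying NF-κB and AP-1 sites, compounds dosed 0.05 nM to 50 µM for 22 h, inhibition scaled between agonist-plus-DMSO and reference-inhibitor wells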
Chain of human TLR8 (Q9NR97 27-1041): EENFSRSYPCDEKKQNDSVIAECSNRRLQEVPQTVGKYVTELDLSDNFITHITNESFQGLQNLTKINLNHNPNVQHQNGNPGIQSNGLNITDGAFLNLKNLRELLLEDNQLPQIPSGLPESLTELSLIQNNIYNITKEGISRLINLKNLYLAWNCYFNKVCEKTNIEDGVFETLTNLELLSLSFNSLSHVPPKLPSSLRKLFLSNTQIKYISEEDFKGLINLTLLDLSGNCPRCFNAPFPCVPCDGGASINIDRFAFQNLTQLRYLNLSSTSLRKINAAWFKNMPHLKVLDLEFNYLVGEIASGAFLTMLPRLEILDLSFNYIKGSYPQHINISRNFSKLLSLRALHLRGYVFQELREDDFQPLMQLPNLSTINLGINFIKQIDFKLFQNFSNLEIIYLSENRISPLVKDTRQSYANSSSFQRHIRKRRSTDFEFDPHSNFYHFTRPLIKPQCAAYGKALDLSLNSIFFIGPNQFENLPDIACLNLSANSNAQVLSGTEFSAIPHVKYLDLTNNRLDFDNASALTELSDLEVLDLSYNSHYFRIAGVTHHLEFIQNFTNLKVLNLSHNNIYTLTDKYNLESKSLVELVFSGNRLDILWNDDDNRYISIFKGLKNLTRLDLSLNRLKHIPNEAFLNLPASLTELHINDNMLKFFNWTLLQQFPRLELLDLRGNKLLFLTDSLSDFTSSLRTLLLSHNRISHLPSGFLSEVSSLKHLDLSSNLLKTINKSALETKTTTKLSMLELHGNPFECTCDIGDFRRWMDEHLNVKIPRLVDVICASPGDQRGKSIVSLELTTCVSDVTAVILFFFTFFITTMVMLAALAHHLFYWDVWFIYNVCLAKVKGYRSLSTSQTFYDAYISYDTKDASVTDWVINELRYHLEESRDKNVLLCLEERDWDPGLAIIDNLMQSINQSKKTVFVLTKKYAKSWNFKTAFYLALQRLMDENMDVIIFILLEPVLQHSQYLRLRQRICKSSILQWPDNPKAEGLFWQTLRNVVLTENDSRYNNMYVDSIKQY

Chain of human TLR9 (Q9NR96 26-1032): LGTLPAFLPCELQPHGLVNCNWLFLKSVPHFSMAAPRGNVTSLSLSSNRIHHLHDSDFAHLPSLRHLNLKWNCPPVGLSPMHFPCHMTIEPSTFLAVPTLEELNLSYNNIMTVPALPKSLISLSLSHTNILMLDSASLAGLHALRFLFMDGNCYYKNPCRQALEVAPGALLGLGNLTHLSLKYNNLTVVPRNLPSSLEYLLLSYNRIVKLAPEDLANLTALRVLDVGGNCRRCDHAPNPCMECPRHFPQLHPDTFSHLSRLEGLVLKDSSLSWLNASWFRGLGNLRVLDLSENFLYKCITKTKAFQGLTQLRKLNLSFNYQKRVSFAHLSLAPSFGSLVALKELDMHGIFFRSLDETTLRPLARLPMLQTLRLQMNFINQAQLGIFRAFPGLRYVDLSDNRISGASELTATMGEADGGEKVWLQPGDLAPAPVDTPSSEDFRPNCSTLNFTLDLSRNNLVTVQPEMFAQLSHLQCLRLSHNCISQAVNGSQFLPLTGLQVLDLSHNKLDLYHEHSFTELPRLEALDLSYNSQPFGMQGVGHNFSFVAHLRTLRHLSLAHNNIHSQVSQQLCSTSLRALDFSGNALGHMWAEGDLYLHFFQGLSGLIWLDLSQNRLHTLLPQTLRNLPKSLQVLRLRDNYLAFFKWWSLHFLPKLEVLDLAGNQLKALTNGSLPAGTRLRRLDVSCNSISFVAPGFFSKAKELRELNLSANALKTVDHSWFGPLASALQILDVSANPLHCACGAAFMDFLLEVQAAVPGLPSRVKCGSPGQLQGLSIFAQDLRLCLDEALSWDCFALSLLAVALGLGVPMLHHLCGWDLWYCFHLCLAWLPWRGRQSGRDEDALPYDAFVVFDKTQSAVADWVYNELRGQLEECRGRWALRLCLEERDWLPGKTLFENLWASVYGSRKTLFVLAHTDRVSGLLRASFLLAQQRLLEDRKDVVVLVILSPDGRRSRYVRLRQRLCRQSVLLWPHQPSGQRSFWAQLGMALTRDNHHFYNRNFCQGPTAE
Chain of human TLR7 (Q9NYK1 27-1049): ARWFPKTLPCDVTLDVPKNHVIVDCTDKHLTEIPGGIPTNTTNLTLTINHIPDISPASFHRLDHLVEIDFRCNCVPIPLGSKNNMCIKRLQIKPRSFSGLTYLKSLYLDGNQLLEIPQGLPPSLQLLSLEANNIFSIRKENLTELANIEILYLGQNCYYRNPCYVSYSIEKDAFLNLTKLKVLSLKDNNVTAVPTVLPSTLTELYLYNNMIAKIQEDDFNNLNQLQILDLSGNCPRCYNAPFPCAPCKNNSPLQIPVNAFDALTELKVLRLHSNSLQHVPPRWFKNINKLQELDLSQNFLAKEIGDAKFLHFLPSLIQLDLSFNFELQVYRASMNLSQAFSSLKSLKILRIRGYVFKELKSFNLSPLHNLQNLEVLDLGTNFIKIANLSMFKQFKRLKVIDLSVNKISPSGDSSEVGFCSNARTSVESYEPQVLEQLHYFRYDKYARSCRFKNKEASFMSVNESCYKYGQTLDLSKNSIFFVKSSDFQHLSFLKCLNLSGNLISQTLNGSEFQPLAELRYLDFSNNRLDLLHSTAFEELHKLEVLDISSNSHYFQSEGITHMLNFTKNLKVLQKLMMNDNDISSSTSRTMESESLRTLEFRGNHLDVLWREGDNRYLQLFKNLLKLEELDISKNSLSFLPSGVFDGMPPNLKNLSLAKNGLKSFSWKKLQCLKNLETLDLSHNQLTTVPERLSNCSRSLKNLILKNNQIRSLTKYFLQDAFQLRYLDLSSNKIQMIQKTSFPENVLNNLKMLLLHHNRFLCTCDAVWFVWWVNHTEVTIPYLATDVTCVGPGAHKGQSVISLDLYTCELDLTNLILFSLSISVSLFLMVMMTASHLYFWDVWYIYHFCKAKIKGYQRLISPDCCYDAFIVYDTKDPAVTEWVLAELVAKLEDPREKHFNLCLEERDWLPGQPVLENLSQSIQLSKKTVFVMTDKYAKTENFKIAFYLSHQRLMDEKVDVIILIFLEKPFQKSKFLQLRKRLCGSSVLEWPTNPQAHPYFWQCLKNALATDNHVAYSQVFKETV

| SMILES | IC50 [1] [nM] | IC50 [2] [nM] | IC50 [3] [nM] |
| --- | --- | --- | --- |
| CC(C)c1c(-c2cn(CC#N)c3ncccc23)[nH]c2ccc(C3CCC(NCCS(C)(=O)=O)CC3)nc12 (stereo not drawn) [Example 273] | 75 | 1110 | 66 |
| CC(C)c1c(-c2cn(CC#N)c3ncccc23)[nH]c2ccc(C3CCC(NC4CCCOC4)CC3)nc12 (stereo not drawn) [Example 274] | 8.5 | 474 | 3.7 |
| CC(C)c1c(-c2cn(CC#N)c3ncccc23)[nH]c2ccc(C3CCC(NCCS(C)(=O)=O)CC3)nc12 (stereo not drawn) [Example 275] | 14 | 684 | 8.5 |
| CC(C)c1c(-c2cn(CC#N)c3ncccc23)[nH]c2ccc(C3CCC(NCC(=O)N(C)C)CC3)nc12 (stereo not drawn) [Example 276] | 8.9 | 309 | 9 |
| COc1cc(-c2[nH]c3ccc(C4CCC(N(CC#N)C5COC5)CC4)nc3c2C(C)C)cn2ncnc12 (stereo not drawn) [Example 277] | 0.4 | 1380 | 1.6 |
| CC(C)c1c(-c2cn(C)c3ncccc23)[nH]c2ccc(C3CCC(NCC(C)(C)S(C)(=O)=O)CC3)nc12 (stereo not drawn) [Example 278] | 1.5 | 837 | 1.2 |
| Cc1cc(-c2[nH]c3ccc(C4CCC(NC5COC5)CC4)nc3c2C(C)C)cn2ncnc12 (stereo not drawn) [Example 279] | 0.31 | 1820 | 1.4 |
| Cc1cc(-c2[nH]c3ccc(C4CCC(NCC(=O)N(C)C)CC4)nc3c2C(C)C)cn2ncnc12 (stereo not drawn) [Example 280] | 1.1 | 1270 | 7.2 |
| Cc1cc(-c2[nH]c3ccc(C4CCC(N5CC6(COC6)C5)CC4)nc3c2C(C)C)cn2ncnc12 (stereo not drawn) [Example 281] | 0.48 | 880 | 1.7 |
| Cc1cc(-c2[nH]c3ccc(C4CCC(NC5COC5)CC4)nc3c2C(C)C)cc(C)n1 (stereo not drawn) [Example 282] | 0.32 | 661 | 0.91 |
| Cc1cc(-c2[nH]c3ccc(C4CCC(N5CC6(COC6)C5)CC4)nc3c2C(C)C)cc(C)n1 (stereo not drawn) [Example 283] | 0.92 | 298 | 1.4 |
| Cc1cc(-c2[nH]c3ccc(C4CCC(NC5COC5)CC4)nc3c2C(C)C)cn2ncnc12 (stereo not drawn) [Example 284] | 3 | 4040 | 15 |
| CC(C)c1c(-c2cn(C)c3ncccc23)[nH]c2ccc(C3CCC(NCC(C)(C)S(C)(=O)=O)CC3)nc12 (stereo not drawn) [Example 285] | 3.6 | 2310 | 5.5 |
| Cc1cc(-c2[nH]c3ccc(C4CCC(N5CC6(COC6)C5)CC4)nc3c2C(C)C)cc(C)n1 (stereo not drawn) [Example 286] | 5.2 | 1570 | 9.2 |
| Cc1cc(-c2[nH]c3ccc(C4CCC(NC5COC5)CC4)nc3c2C(C)C)cc(C)n1 (stereo not drawn) [Example 287] | 25 | 2360 | 33 |
| Cc1cc(-c2[nH]c3ccc(C4CCC(N5CC6(COC6)C5)CC4)nc3c2C(C)C)cn2ncnc12 (stereo not drawn) [Example 288] | 28 | 6450 | 114 |
| CCn1cc(-c2[nH]c3ccc(C4CCC(NC5CCOCC5)CC4)nc3c2C(C)C)c2cccnc21 (stereo not drawn) [Example 289] | 3.5 | 967 | 11 |
| CCn1cc(-c2[nH]c3ccc(C4CCC(N5CC6(COC6)C5)CC4)nc3c2C(C)C)c2cccnc21 (stereo not drawn) [Example 290] | 2.1 | 425 | 6.3 |
| CCn1cc(-c2[nH]c3ccc(C4CCC(NCC(=O)N(C)C)CC4)nc3c2C(C)C)c2cccnc21 (stereo not drawn) [Example 291] | 2.6 | 735 | 11 |
| CCn1cc(-c2[nH]c3ccc(C4CCC(NC5CCOCC5)CC4)nc3c2C(C)C)c2cccnc21 (stereo not drawn) [Example 292] | 99 | 1620 | 127 |
| CCn1cc(-c2[nH]c3ccc(C4CCC(O)CC4)nc3c2C(C)C)c2cccnc21 (stereo not drawn) [Example 293] | 75 | 5640 | 208 |
| CCn1cc(-c2[nH]c3ccc(C4CCC(N5CC6(COC6)C5)CC4)nc3c2C(C)C)c2cccnc21 (stereo not drawn) [Example 294] | 85 | 2270 | 174 |
| CNC1CCC(c2ccc3[nH]c(-c4cn(CCO)c5ncccc45)c(C(C)C)c3n2)CC1 (stereo not drawn) [Example 295] | 11 | 883 | 11 |
| CNC1CCC(c2ccc3[nH]c(-c4cn(C)c5ncncc45)c(C(C)C)c3n2)CC1 (stereo not drawn) [Example 296] | 0.59 | 600 | 6.8 |
| CNC1CCC(c2ccc3[nH]c(-c4cn(C)c5nccnc45)c(C(C)C)c3n2)CC1 (stereo not drawn) [Example 297] | 8.4 | 885 | 15 |
| CNC1CCC(c2ccc3[nH]c(-c4cn(CCO)c5ncccc45)c(C(C)C)c3n2)CC1 (stereo not drawn) [Example 299] | 10 | 680 | 6 |

| SMILES | IC50 [1] [nM] | IC50 [2] [nM] | IC50 [3] [nM] |
| --- | --- | --- | --- |
| CNC1CCC(c2ccc3[nH]c(-c4cn(C)c5nccnc45)c(C(C)C)c3n2)CC1 (stereo not drawn) [Example 300] | 48 | 9050 | 286 |
| CNC1CCC(c2ccc3[nH]c(-c4cn(C)c5ncncc45)c(C(C)C)c3n2)CC1 (stereo not drawn) [Example 301] | 2 | 4090 | 42 |
| CNC1CCC(c2ccc3[nH]c(-c4cn(C)c5ncccc45)c(C(C)C)c3n2)CC1 (stereo not drawn) [Example 302] | 0.74 | 739 | 4.9 |
| CC(C)c1c(-c2cn(C)c3ncncc23)[nH]c2ccc(C3CCC(NCC(=O)N(C)C)CC3)nc12 (stereo not drawn) [Example 303] | 0.55 | 1230 | 6.9 |
| CC(C)c1c(-c2cn(C)c3ncncc23)[nH]c2ccc(C3CCC(NCCS(C)(=O)=O)CC3)nc12 (stereo not drawn) [Example 304] | 0.53 | 1070 | 1.8 |
| CC(C)c1c(-c2cn(C)c3ncncc23)[nH]c2ccc(C3CCC(NC4CCOCC4)CC3)nc12 (stereo not drawn) [Example 305] | 4 | 8240 | 16 |
| CC(C)c1c(-c2cc(CO)c3ncnn3c2)[nH]c2ccc(C3CCC(N(C)Cc4ccc(F)cc4)CC3)nc12 (stereo not drawn) [Example 306] | 13 | 10100 | 61 |
| CC(C)c1c(-c2cc(CO)c3ncnn3c2)[nH]c2ccc(C3CCC(NCCC(F)(F)F)CC3)nc12 (stereo not drawn) [Example 307] | 0.86 | 2980 | 2.7 |
| CC(C)c1c(-c2cc(CO)c3ncnn3c2)[nH]c2ccc(C3CCC(NCCC(F)(F)F)CC3)nc12 (stereo not drawn) [Example 308] | 11 | 3960 | 11 |
| COc1cc(-c2[nH]c3cc(C)c(C4CCC(NC5COC5)CC4)nc3c2C(C)C)cn2ncnc12 (stereo not drawn) [Example 309] | 0.31 | 268 | 4.6 |
| COc1cc(-c2[nH]c3cc(C)c(C4CCC(NC5(C)COC5)CC4)nc3c2C(C)C)cn2ncnc12 (stereo not drawn) [Example 310] | 0.39 | 1780 | 4.1 |
| COc1cc(-c2[nH]c3cc(C)c(C4CCC(NC5(C)COC5)CC4)nc3c2C(C)C)cn2ncnc12 (stereo not drawn) [Example 311] | 2.8 | 2020 | 44 |
| COc1cc(-c2[nH]c3cc(C)c(C4CCC(NCC5(C)COC5)CC4)nc3c2C(C)C)cn2ncnc12 (stereo not drawn) [Example 312] | 0.26 | 577 | 1.6 |
| CCN(C)C1CCC(c2nc3c(C(C)C)c(-c4cc(OC)c5ncnn5c4)[nH]c3cc2C)CC1 (stereo not drawn) [Example 313] | 0.21 | 1200 | 7 |
| COc1cc(-c2[nH]c3cc(C)c(C4CCC(NCC(C)(C)O)CC4)nc3c2C(C)C)cn2ncnc12 (stereo not drawn) [Example 314] | 2.4 | 5510 | 47 |
| COc1cc(-c2[nH]c3cc(C)c(C4CCC(NCC5(C)COC5)CC4)nc3c2C(C)C)cn2ncnc12 (stereo not drawn) [Example 315] | 1.8 | 5220 | 29 |
| COc1cc(-c2[nH]c3cc(C)c(C4CCC(NC5COC5)CC4)nc3c2C(C)C)cn2ncnc12 (stereo not drawn) [Example 316] | 1.4 | 3020 | 41 |
| COc1cc(-c2[nH]c3cc(C)c(C4CCC(N5CC6(COC6)C5)CC4)nc3c2C(C)C)cn2ncnc12 (stereo not drawn) [Example 317] | 4.8 | 3610 | 94 |
| COc1cc(-c2[nH]c3cc(C)c(C4CCC(N)CC4)nc3c2C(C)C)cn2ncnc12 (stereo not drawn) [Example 318] | 0.17 | 1060 | 2.1 |
| COc1cc(-c2[nH]c3cc(C)c(C4CCC(N5CC6(COC6)C5)CC4)nc3c2C(C)C)cn2ncnc12 (stereo not drawn) [Example 319] | 0.44 | 1690 | 4.1 |
| CCN(C)C1CCC(c2nc3c(C(C)C)c(-c4cc(OC)c5ncnn5c4)[nH]c3cc2C)CC1 (stereo not drawn) [Example 320] | 1 | 1480 | 22 |
| COc1cc(-c2[nH]c3cc(C)c(C4CCC(NCC(F)F)CC4)nc3c2C(C)C)cn2ncnc12 (stereo not drawn) [Example 322] | 1.7 | 7410 | 19 |
| COc1cc(-c2[nH]c3cc(C)c(C4CCC(N)CC4)nc3c2C(C)C)cn2ncnc12 (stereo not drawn) [Example 323] | 1.1 | 1360 | 31 |
| COc1cc(-c2[nH]c3cc(C)c(C4CCC(NCC(F)F)CC4)nc3c2C(C)C)cn2ncnc12 (stereo not drawn) [Example 324] | 6.6 | 20500 | 240 |
| COc1cc(-c2[nH]c3cc(C)c(C4CCC(N5CCC5)CC4)nc3c2C(C)C)cn2ncnc12 (stereo not drawn) [Example 325] | 1.5 | 3110 | 38 |
| COc1cc(-c2[nH]c3cc(C)c(C4CCC(N5CCC5)CC4)nc3c2C(C)C)cn2ncnc12 (stereo not drawn) [Example 326] | 0.13 | 988 | 3.7 |
